Assay results as given in ChEMBL document CHEMBL1201862, “PubChem BioAssay data set” (2004).
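Method: 48-hour compound exposure of cells in 96-well plates, five concentrations, linear interpolation of endpoints. GI50 marks 50% less growth.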 The source made the active and inactive calls. No stated cut-off is given here; in the data, active = GI50 up to about 1.1 µM and inactive = higher.

Columns and labels:
Experiment in all cases: NCI-60 cell line screen, 48 h
[1] = tested on: HOP-92
[2] = tested on: BT-549
[3] = tested on: MDA-N
[4] = tested on: MOLT-4
[5] = tested on: HT-29
[6] = tested on: MDA-MB-435
[7] = tested on: 786-0
[8] = tested on: CAKI-1
[9] = tested on: RPMI-8226
[10] = tested on: PC-3
[11] = tested on: MCF7
[12] = tested on: SK-MEL-2
[13] = tested on: SK-MEL-28
[14] = tested on: SF-268
[15] = tested on: HCT-116
[16] = tested on: CCRF-CEM
[17] = tested on: SNB-75
[18] = tested on: SR
[19] = tested on: OVCAR-4
[20] = tested on: SK-OV-3
[21] = tested on: A549
[22] = tested on: ACHN
[23] = tested on: SF-539
[24] = tested on: HCC 2998
[25] = tested on: U-251
[26] = tested on: UO-31
[27] = tested on: K562
[28] = tested on: UACC-62
[29] = tested on: HOP-62
[30] = tested on: Malme-3M
[31] = tested on: NCI-H522
[32] = tested on: LOX IMVI
[33] = tested on: SNB-19
[34] = tested on: SK-MEL-5
[35] = tested on: UACC-257
[36] = tested on: OVCAR-3
[37] = tested on: NCI-H460
[38] = tested on: A498
[39] = tested on: SF-295
[40] = tested on: HL-60
[41] = tested on: EKVX
[42] = tested on: SW-620
[43] = tested on: OVCAR-8
[44] = tested on: NCI/ADR-RES
[45] = tested on: OVCAR-5
[46] = tested on: NCI-H23
[47] = tested on: KM12
[48] = tested on: COLO 205
[49] = tested on: Hs-578T
[50] = tested on: HCT-15
[51] = tested on: T47D
[52] = tested on: IGROV-1
[53] = tested on: M14
[54] = tested on: NCI-H226
[55] = tested on: DU-145
[56] = tested on: SN12C
[57] = tested on: MDA-MB-231
[58] = tested on: RXF 393
[59] = tested on: TK-10

SMILES: CC1(C)[C@H]2CC[C@@]13C(=O)N1C(=O)O[C@@H]([C@H]1Cl)C(Cl)(COCc1ccccc1)C(=O)OCCO[C@H]3C2 (stereo not given in full)
- GI50 [1]: > 100 µM (inactive)
- GI50 [2]: 61.2 µM (inactive)
- GI50 [3]: 64.9 µM (inactive)
- GI50 [4]: 21 µM (inactive)
- GI50 [5]: 35.6 µM (inactive)
- GI50 [6]: 42.8 µM (inactive)
- GI50 [7]: 70 µM (inactive)
- GI50 [8]: > 100 µM (inactive)
- GI50 [9]: 28.2 µM (inactive)
- GI50 [10]: 38.2 µM (inactive)
- GI50 [11]: 44.2 µM (inactive)
- GI50 [12]: 85.5 µM (inactive)
- GI50 [13]: > 100 µM (inactive)
- GI50 [14]: > 100 µM (inactive)
- GI50 [15]: 37.8 µM (inactive)
- GI50 [16]: 38.5 µM (inactive)
- GI50 [17]: > 100 µM (inactive)
- GI50 [18]: 39.7 µM (inactive)
- GI50 [19]: 40.6 µM (inactive)
- GI50 [20]: > 100 µM (inactive)
- GI50 [21]: 54.3 µM (inactive)
- GI50 [22]: 70.6 µM (inactive)
- GI50 [23]: > 100 µM (inactive)
- GI50 [24]: 57.3 µM (inactive)
- GI50 [25]: 39.4 µM (inactive)
- GI50 [26]: 96.4 µM (inactive)
- GI50 [27]: 24.3 µM (inactive)
- GI50 [28]: 83.6 µM (inactive)
- GI50 [29]: > 100 µM (inactive)
- GI50 [30]: 60.8 µM (inactive)
- GI50 [31]: 34.8 µM (inactive)
- GI50 [32]: 74 µM (inactive)
- GI50 [33]: > 100 µM (inactive)
- GI50 [34]: 29.9 µM (inactive)
- GI50 [35]: 48.9 µM (inactive)
- GI50 [36]: 54.2 µM (inactive)
- GI50 [37]: 53.6 µM (inactive)
- GI50 [38]: > 100 µM (inactive)
- GI50 [39]: 51.1 µM (inactive)
- GI50 [40]: 35.2 µM (inactive)
- GI50 [41]: 95.9 µM (inactive)
- GI50 [42]: 66.8 µM (inactive)
- GI50 [43]: > 100 µM (inactive)
- GI50 [44]: 59.4 µM (inactive)
- GI50 [45]: > 100 µM (inactive)
- GI50 [46]: 40.9 µM (inactive)
- GI50 [47]: 63.7 µM (inactive)
- GI50 [48]: 18 µM (inactive)
- GI50 [49]: 88.1 µM (inactive)
- GI50 [50]: 40.8 µM
- GI50 [51]: 43.1 µM (inactive)
- GI50 [52]: > 100 µM (inactive)
- GI50 [53]: 69.2 µM (inactive)

SMILES: O=C1CCCCCCCCCCC1CN1CCOCC1 (stereo not given)
- GI50 [1]: > 100 µM (inactive)
- GI50 [2]: > 100 µM (inactive)
- GI50 [3]: > 100 µM (inactive)
- GI50 [4]: 66.1 µM (inactive)
- GI50 [54]: > 100 µM (inactive)
- GI50 [6]: > 100 µM (inactive)
- GI50 [7]: > 100 µM (inactive)
- GI50 [9]: > 100 µM (inactive)
- GI50 [55]: > 100 µM (inactive)
- GI50 [10]: > 100 µM (inactive)
- GI50 [11]: > 100 µM (inactive)
- GI50 [56]: > 100 µM (inactive)
- GI50 [13]: > 100 µM (inactive)
- GI50 [14]: > 100 µM (inactive)
- GI50 [15]: > 100 µM (inactive)
- GI50 [16]: > 100 µM (inactive)
- GI50 [17]: 2.45 µM (inactive)
- GI50 [18]: > 100 µM (inactive)
- GI50 [19]: > 100 µM (inactive)
- GI50 [20]: > 100 µM (inactive)
- GI50 [21]: > 100 µM (inactive)
- GI50 [22]: > 100 µM (inactive)
- GI50 [23]: > 100 µM (inactive)
- GI50 [24]: > 100 µM (inactive)
- GI50 [25]: > 100 µM (inactive)
- GI50 [26]: > 100 µM (inactive)
- GI50 [27]: > 100 µM (inactive)
- GI50 [28]: > 100 µM (inactive)
- GI50 [29]: > 100 µM (inactive)
- GI50 [30]: > 100 µM (inactive)
- GI50 [31]: > 100 µM (inactive)
- GI50 [33]: > 100 µM (inactive)
- GI50 [57]: > 100 µM (inactive)
- GI50 [34]: 13.9 µM (inactive)
- GI50 [35]: > 100 µM (inactive)
- GI50 [36]: > 100 µM (inactive)
- GI50 [39]: > 100 µM (inactive)
- GI50 [40]: > 100 µM (inactive)
- GI50 [41]: > 100 µM (inactive)
- GI50 [42]: > 100 µM (inactive)
- GI50 [58]: > 100 µM (inactive)
- GI50 [43]: > 100 µM (inactive)
- GI50 [59]: > 100 µM (inactive)
- GI50 [45]: > 100 µM (inactive)
- GI50 [46]: > 100 µM (inactive)
- GI50 [47]: > 100 µM (inactive)
- GI50 [48]: > 100 µM (inactive)
- GI50 [49]: 30.3 µM (inactive)
- GI50 [50]: > 100 µM
- GI50 [51]: > 100 µM (inactive)
- GI50 [52]: > 100 µM (inactive)
- GI50 [53]: > 100 µM (inactive)
